{
  "source": "paper PMC8026324",
  "about": "“In Vitro Antiplasmodial, Heme Polymerization, and Cytotoxicity of Hydroxyxanthone Derivatives” (Journal of Tropical Medicine, 2021)",
  "key": {"MCF-7": {"test_system": "MCF-7", "design": "method as in earlier work", "conditions": "cited from earlier work"}, "[1]": {"test_system": "Plasmodium falciparum 3D-7 (chloroquine-sensitive strain)", "experiment": "In vitro antiplasmodial activity assay, microscopic method, strain 3D-7", "format": "cell-based", "procedure,_shortened": "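Sorbitol-synchronized ring-stage parasites at 1% parasitemia, 2% haematocrit in RPMI with 10% human O serum, exposed to compound dilutions in triplicate for 72 h at 37 °C. Parasitemia counted on Giemsa smears (≥1,000 erythrocytes); IC50 from growth inhibition by probit analysis.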"}, "[2]": {"test_system": "formation of β-hematin (heme polymerization)", "experiment": "In vitro heme polymerization inhibitory activity (HPIA) assay", "format": "biochemical", "method": "The heme polymerization inhibitory activity (HPIA) was conducted according to Basilico et al.'s modified method. The 100 μL of 1 mM hematin in 0.2 M NaOH was added into a microtube. […] Distilled water was used as a negative control. The 50 μL solution of glacial acetic acid (pH 2.6) was added into the microtube to initiate the polymerization reaction and incubated at a temperature of 37°C for 24 hours. Microtubes were centrifuged at 8000 rpm for 10 minutes and the supernatant was discarded and then washed three times using the 200 μL dimethyl sulfoxide (DMSO).Then, the deposition of the hematin crystal was dissolved with 200 μL of 0.1 M NaOH and 100 μL of solution was added into the 96-well microplate.\nAbsorbance was read using ELISA reader at λ 405 nm. A standard curve was made to illustrate the relationship between the concentration of hematin and its absorbance. The various concentrations of hematin (250; 125; 62.5; 31.25; 15.6; 7.8; and […]) were used to make the standard curve. The heme polymerization inhibition was expressed as IC50, which is the concentration of testing compounds that can inhibit 50% of the formation of β-hematin. The IC50 value was calculated by probit analysis using SPSS software (IBM Corp., Chicago)."}, "[3]": {"test_system": "Plasmodium falciparum 3D-7", "experiment": "Flow cytometry method (SYBR green I / CD235A-PE)", "format": "cell-based", "conditions": "72 hours incubation", "method": "The Plasmodium falciparum strains of 3D-7 were used in this method. The plasmodium synchronized to obtain the ring stage by adding 5% of D-sorbitol. Plasmodium with 1% parasitemia was cultured in a 96-well microplate. The testing compounds were added in duplicate and incubated at 37°C for 72 hours. The samples were centrifuged with a speed of 1000 rpm for 10 minutes and washed twice in 100 μL of phosphate-buffered saline (PBS). Samples were incubated with 50 μL of 1 : 1000 SYBR green I and 20μL of CD235A-PE for 15 minutes at room temperature. Cells were washed and resuspended in PBS. Data were obtained using a FACSCalibur with the acquisition of 1,00,000 events per sample. Initial gating was done with uninfected and unstained erythrocytes to account for erythrocyte autofluorescence. The control plasmodium-infected erythrocyte was referred as 100% growth to calculate the percentage of growth inhibition after treated with testing compound."}},
  "data": [
    {"compound": "O=c1c2c(O)cccc2oc2cc(O)cc(O)c12", "note": "[HX1, 1,6,8-trihydroxyxanthone]", "values": [
      {"measurement": "cytotoxicity on MCF-7 (in words)", "setting": "MCF-7", "value": "weak"},
      {"measurement": "IC50 on MCF-7 cell line", "setting": "MCF-7; in vitro cytotoxicity", "value": 45, "unit": "µg/mL"},
      {"measurement": "inhibition at 6.39 µM", "setting": "[1]; Plasmodium falciparum, 6.39 μM, read-out: Growth inhibition of P. falciparum Strain 3D-7", "value": "47.4 ± 5.86", "unit": "%"},
      {"measurement": "inhibition at 12.8 µM", "setting": "[1]; Plasmodium falciparum, 12.8 μM, read-out: Growth inhibition of P. falciparum Strain 3D-7", "value": "61.5 ± 0.71", "unit": "%"},
      {"measurement": "inhibition at 25.59 µM", "setting": "[1]; Plasmodium falciparum, 25.59 μM, read-out: Growth inhibition of P. falciparum Strain 3D-7", "value": "64.7 ± 0.861", "unit": "%"},
      {"measurement": "inhibition at 51.19 µM", "setting": "[1]; Plasmodium falciparum, 51.19 μM, read-out: Growth inhibition of P. falciparum Strain 3D-7", "value": "69 ± 0.888", "unit": "%"},
      {"measurement": "inhibition at 102.38 µM", "setting": "[1]; Plasmodium falciparum, 102.38 μM, read-out: Growth inhibition of P. falciparum Strain 3D-7", "value": "75.86 ± 0.471", "unit": "%"},
      {"measurement": "IC50", "setting": "[1]; Plasmodium falciparum, 72 hours incubation, microscopic method, read-out: IC50 on P. falciparum 3D-7", "value": "6.1 ± 2.01", "unit": "µM"},
      {"measurement": "antiplasmodial activity category on P. falciparum 3D-7", "setting": "[1]; category by IC50", "value": "good (good (IC50 1–20 μM))"},
      {"measurement": "IC50", "setting": "[2]; 24 hours, 37°C, glacial acetic acid pH 2.6", "value": 2850, "unit": "µM"},
      {"measurement": "Inhibition of β-hematin", "setting": "[2]; compound 1.269 mM", "value": 33.901, "unit": "%"},
      {"measurement": "β-Hematin formed", "setting": "[2]; compound 1.269 mM", "value": 72.500, "unit": "mM"},
      {"measurement": "Inhibition of β-hematin", "setting": "[2]; compound 2.580 mM", "value": 49.149, "unit": "%"},
      {"measurement": "β-Hematin formed", "setting": "[2]; compound 2.580 mM", "value": 55.776, "unit": "mM"},
      {"measurement": "Inhibition of β-hematin", "setting": "[2]; compound 5.119 mM", "value": 50.359, "unit": "%"},
      {"measurement": "β-Hematin formed", "setting": "[2]; compound 5.119 mM", "value": 54.448, "unit": "mM"},
      {"measurement": "Inhibition of β-hematin", "setting": "[2]; compound 10.238 mM", "value": 86.893, "unit": "%"},
      {"measurement": "β-Hematin formed", "setting": "[2]; compound 10.238 mM", "value": 14.376, "unit": "mM"},
      {"measurement": "Inhibition of β-hematin", "setting": "[2]; compound 20.475 mM", "value": 91.171, "unit": "%"},
      {"measurement": "β-Hematin formed", "setting": "[2]; compound 20.475 mM", "value": 9.684, "unit": "mM"},
      {"measurement": "inhibition activity of P. falciparum 3D-7 growth (flow cytometry)", "setting": "[3]; 102.38 μM", "value": "showed inhibition activity"},
      {"measurement": "inhibition at 204.75 µM", "setting": "[3]; Plasmodium falciparum, 204.75 μM, read-out: inhibition activity of P. falciparum 3D-7 growth (flow cytometry)", "value": "> 90", "unit": "%"}
    ]}
  ]
}
